We go through 2 molecules from ChEMBL document CHEMBL1131247, “Substituted naphthofurans as hallucinogenic phenethylamine-ergoline hybrid molecules with unexpected muscarinic antagonist activity” (J Med Chem, 1998).

Molecules are shown by their SMILES. Several values for one entry are separate records, joined by “and”; a condition that tells them apart may be missing. Equal values may be shown once.

For assay [1], the target named is T1, 5-hydroxytryptamine receptor 2A (Homo sapiens, UniProt P28223). The assay is described as follows: Binding ability of compound at cloned human 5-hydroxytryptamine 2A receptor using [125 I]DOI as radioligand.
T1 sequence (P28223 whole entry): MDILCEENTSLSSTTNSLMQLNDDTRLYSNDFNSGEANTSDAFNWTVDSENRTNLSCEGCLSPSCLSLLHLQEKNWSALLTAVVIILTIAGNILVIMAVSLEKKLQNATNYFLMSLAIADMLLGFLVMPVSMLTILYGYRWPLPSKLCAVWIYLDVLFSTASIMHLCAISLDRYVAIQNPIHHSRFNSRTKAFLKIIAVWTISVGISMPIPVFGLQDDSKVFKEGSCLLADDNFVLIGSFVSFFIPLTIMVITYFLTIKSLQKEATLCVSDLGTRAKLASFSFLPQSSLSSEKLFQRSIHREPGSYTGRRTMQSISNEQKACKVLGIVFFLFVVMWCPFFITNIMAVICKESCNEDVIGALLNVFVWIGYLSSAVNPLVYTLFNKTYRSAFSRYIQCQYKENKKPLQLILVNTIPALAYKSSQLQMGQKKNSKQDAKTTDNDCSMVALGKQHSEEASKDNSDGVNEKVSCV
Assay [2] concerns the target T2, 5-hydroxytryptamine receptor 2B (Homo sapiens, UniProt P41595). The assay is described as follows: Binding ability of compound at cloned human 5-hydroxytryptamine 2B receptor using [3H]5-HT 2B as radioligand.
Assay [3] deals with T3, 5-hydroxytryptamine receptor 2C (Homo sapiens, UniProt P28335).
T3 sequence (P28335 whole entry): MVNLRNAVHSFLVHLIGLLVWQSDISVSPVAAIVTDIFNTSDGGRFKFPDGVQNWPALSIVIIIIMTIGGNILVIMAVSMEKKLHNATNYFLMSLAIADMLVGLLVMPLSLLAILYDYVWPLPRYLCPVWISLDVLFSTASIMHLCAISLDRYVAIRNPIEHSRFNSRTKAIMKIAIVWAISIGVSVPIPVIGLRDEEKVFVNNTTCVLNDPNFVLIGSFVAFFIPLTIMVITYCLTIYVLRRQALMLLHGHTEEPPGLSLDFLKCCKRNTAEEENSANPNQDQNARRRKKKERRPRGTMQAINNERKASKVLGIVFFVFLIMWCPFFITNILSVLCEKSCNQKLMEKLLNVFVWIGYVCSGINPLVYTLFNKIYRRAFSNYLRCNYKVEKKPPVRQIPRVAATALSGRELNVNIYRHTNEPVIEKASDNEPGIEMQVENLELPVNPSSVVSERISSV
The assay can be described thus: Binding ability of compound at cloned human 5-hydroxytryptamine 2C receptor using [125 I]DOI as radioligand.

For assay [4], the target named is T1, 5-hydroxytryptamine receptor 2A. The assay is described as follows: Binding ability of compound at cloned human 5-hydroxytryptamine 2A receptor using [3H]ketanserin as radioligand.
For assay [5], the species on record is Rattus norvegicus. The assay can be described thus: Effective dose for LSD-like behavioral effect in rats. The assay is classed as functional.
The target of assay [6] is T2, 5-hydroxytryptamine receptor 2B. The assay can be described thus: Binding ability of compound at cloned human 5-hydroxytryptamine 2B receptor using [3H]rauwolscine as radioligand.
In assay [7] the target is T3, 5-hydroxytryptamine receptor 2C. The assay can be described thus: Binding ability of compound at cloned human 5-hydroxytryptamine 2C receptor using [3H]- mesulergine as radioligand.
The target in assay [8] is T4, 5-hydroxytryptamine receptor 1A (Rattus norvegicus, UniProt P19327).
T4 sequence (P19327 whole entry): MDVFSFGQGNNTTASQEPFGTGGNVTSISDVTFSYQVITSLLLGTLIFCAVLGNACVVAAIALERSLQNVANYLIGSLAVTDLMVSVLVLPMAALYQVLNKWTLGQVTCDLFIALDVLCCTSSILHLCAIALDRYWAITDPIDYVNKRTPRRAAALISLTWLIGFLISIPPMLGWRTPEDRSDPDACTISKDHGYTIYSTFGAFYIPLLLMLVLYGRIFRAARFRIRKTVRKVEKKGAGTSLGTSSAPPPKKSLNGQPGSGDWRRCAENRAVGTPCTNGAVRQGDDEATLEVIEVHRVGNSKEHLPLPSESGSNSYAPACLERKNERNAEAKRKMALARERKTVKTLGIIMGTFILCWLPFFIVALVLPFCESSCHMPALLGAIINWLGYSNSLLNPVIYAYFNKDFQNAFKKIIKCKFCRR
The assay is described as follows: Affinity at [3H]8-OH-DPAT-labeled 5-hydroxytryptamine 1A receptor in rat brain homogenate was determined. The assay is classed as tissue-based.

Assay [9] deals with 5-hydroxytryptamine receptor 2A (Rattus norvegicus, UniProt P14842). The assay is described as follows: Affinity at [3H]ketanserin-labeled 5-hydroxytryptamine 2A receptor in rat brain homogenate was determined. The assay is classed as tissue-based.
Sequence of 5-hydroxytryptamine receptor 2A (Rattus norvegicus, UniProt P14842) (P14842 whole entry): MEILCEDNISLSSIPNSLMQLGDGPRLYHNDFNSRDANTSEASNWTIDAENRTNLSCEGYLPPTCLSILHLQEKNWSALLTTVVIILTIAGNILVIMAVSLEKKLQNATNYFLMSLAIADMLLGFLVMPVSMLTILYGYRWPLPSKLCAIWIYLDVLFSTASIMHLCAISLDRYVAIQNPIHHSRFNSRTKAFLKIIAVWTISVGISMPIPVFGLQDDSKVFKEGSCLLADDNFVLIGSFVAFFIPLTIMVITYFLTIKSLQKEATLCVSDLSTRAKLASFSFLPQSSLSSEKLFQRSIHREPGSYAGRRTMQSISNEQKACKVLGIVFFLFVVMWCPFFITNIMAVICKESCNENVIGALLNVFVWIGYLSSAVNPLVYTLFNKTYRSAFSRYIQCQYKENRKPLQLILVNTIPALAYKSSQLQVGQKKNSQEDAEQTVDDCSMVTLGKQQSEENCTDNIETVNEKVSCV
Assay [10] deals with Rattus norvegicus. The assay is described as follows: Percentage of animals emitting 50 presses on the LSD appropriate lever during the test period i8n at 0.04 mg/kg (0.093 uM/kg). The assay is classed as functional.
Assay [11] has as its system Rattus norvegicus. The assay is described as follows: Percentage of animals emitting 50 presses on the LSD appropriate lever during the test period in rat at 0.01 mg/kg (0.023 uM/kg). The class given is functional.
Assay [12] concerns Rattus norvegicus. The assay is described as follows: Percentage of animals emitting 50 presses on the LSD appropriate lever during the test period in rat at 0.02 mg/kg(0.046 uM/kg). The assay is classed as functional.
Assay [13] deals with Rattus norvegicus. The assay is described as follows: Percentage of animals failing to emit 50 presses on either lever within the 15-min test period in rat at 0.01 mg/kg (0.023 uM/kg). The class given is functional.
Assay [14] deals with Rattus norvegicus. The assay can be described thus: Percentage of animals failing to emit 50 presses on either lever within the 15-min test period in rat at 0.08 mg/kg (0.186 uM/kg). The assay is classed as functional.
For assay [15], the system named is Rattus norvegicus. The assay can be described thus: Percentage of animals emitting 50 presses on the LSD appropriate lever during the test period in at 0.08 mg/kg (0.186 uM/kg). The class given is functional.
Assay [16] concerns Rattus norvegicus. The assay can be described thus: Percentage of animals failing to emit 50 presses on either lever within the 15-min test period in rat at 0.02 mg/kg(0.046 uM/kg). The assay is classed as functional.
In assay [17] the test system is Rattus norvegicus. The assay can be described thus: Percentage of animals failing to emit 50 presses on either lever within the 15-min test period in rat at 0.04 mg/kg (0.093 uM/kg). The assay is classed as functional.

T2 sequence (P41595 whole entry): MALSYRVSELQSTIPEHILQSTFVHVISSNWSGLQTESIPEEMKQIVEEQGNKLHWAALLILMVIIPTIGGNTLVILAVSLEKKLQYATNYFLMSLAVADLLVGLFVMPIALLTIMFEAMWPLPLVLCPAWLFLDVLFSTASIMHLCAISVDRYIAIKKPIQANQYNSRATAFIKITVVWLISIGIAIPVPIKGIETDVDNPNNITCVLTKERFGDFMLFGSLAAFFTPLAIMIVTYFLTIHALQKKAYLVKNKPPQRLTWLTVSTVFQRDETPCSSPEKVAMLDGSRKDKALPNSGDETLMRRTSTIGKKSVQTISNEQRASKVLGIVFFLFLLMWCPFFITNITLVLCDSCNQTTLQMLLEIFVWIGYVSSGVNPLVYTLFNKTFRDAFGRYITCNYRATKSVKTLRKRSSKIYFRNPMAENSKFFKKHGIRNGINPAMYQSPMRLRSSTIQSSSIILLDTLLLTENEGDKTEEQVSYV

For `C[C@@H](N)Cc1c2c(c(Br)c3c1OCC3)OCC2`, the Ki (in general, a dissociation constant, usually derived from enzyme kinetics or from competition with a known ligand) in assay [1] is 0.48 nM; in assay [2], 1.6 nM; in assay [3], 0.3 nM; in [4], 10.7 nM; in [6], 1.15 nM; in assay [7], 2.28 nM. For the same molecule, the Ki came to 4300 nM in assay [8] and 18 nM in assay [9]. For the same molecule, in the assay listed under Rattus norvegicus [5], the 50% effect level (ED50) was put at a dose of 0.061 mg/kg.
`CCN(CC)C(=O)[C@@H]1C=C2c3cccc4[nH]cc(c34)C[C@H]2N(C)C1` [LYSERGIDE]: the SDL with Rattus norvegicus [10] stood at 81%; with Rattus norvegicus [11] it was 31%; with Rattus norvegicus [12] it was 62%; in the assay on Rattus norvegicus [15] it was 100%. The D in the assay with Rattus norvegicus [13] was determined as 0%; in the assay with Rattus norvegicus [14] it was 0%; with Rattus norvegicus [16] it was 7%; in the assay with Rattus norvegicus [17] it was 0%. Also, the ED50 – broadly, the midpoint of the dose-response relation – in the assay listed under Rattus norvegicus [5] was 0.037 µmol/kg and 0.016 mg/kg.
